Experimental data reported in patent US8946144B2, “Phosphonated glycopeptide and lipoglycopeptide antibiotics and uses thereof for the prevention and treatment of bone and joint infections” (The Medicines Company, priority 2006, dated 2015).
Values after ≈ are worked out from the molar mass of the structure shown.

Tests used:
[1] = test system: S. aureus strain ATCC13709; experiment: Antibacterial susceptibility (MIC) in CAMHB; assay type: cell-based; conditions: S. aureus ATCC 13709; cation adjusted Mueller-Hinton broth; 37° C., 18 h
Procedure: (§1) Susceptibility of S. aureus strain ATCC13709 to the commercial antibiotics and synthesized compounds was determined by following the guidelines set by the Clinical and Laboratory Standards Institute (formerly the National Committee for Clinical Laboratory Standards) (M26-A). Compounds were diluted two-fold serially in either DMSO (Vancomycin 4, Oritavancin 8, compounds 10, 31, 33, 39, 44, 50, 60, 65), DMF (compounds 18 and 21) or in PBS (compound 6) and transferred to cation-adjusted Mueller Hinton broth (CAMHB; Becton Dickinson). 50 μL of compounds diluted in CAMHB was mixed with […] of bacteria diluted in CAMHB in 96-well microtiter plates. The final number of micro-organisms in the assay was 5×10^5 c.f.u. per mL and the final concentration of DMSO or DMF in the assay, if present, was 1.25%. Assays were set up in duplicate and incubated at 37° C. for 18 h. The concentration of compound that inhibited visible growth was reported as the minimum inhibitory concentration (MIC).

[2] = test system: S. aureus strain ATCC13709; experiment: Antibacterial susceptibility (MIC) in the presence of 50% serum; assay type: cell-based; conditions: S. aureus ATCC 13709
Procedure: as §1
Susceptibility testing experiments were also carried out in the presence of serum. These experiments were carried out similar to the susceptibility testing with the following modifications. 75 μL of compounds diluted in CAMHB was mixed with 75 μL of bacteria diluted in 100% serum from any given source (commercial pooled mouse serum (MS) and human serum (HS), Equitech-Bio Inc.). The final concentration of animal serum in the assay was 50% and the concentrations of all other components were identical to those described for susceptibility testing.

SMILES	Minimum inhibitory concentration, CAMHB [1] [µg/mL]	Minimum inhibitory concentration, CAMHB + 50% Human Serum [2] [µg/mL]	Minimum inhibitory concentration, CAMHB + 50% Mouse Serum [2] [µg/mL]	Minimum inhibitory concentration, CAMHB + 50% Rat Serum [2] [µg/mL]
CC(C)CC(C(=O)NC1C(=O)NC(CC(N)=O)C(=O)NC2C(=O)NC3C(=O)NC(C(=O)NC(C(=O)O)c4cc(O)cc(O)c4-c4cc3ccc4O)C(O)c3ccc(c(Cl)c3)Oc3cc2cc(c3OC2OC(CO)C(O)C(O)C2OC2CC(C)(N)C(O)C(C)O2)Oc2ccc(cc2Cl)C1O)N(C)C(=O)CCC(=O)NC(P(=O)(O)O)P(=O)(O)O (centres unmarked) [Compound 6]	64 (≈ 37.2 µM)	16	32	128
CC(C)C[C@H](C(=O)N[C@H]1C(=O)N[C@@H](CC(N)=O)C(=O)N[C@H]2C(=O)N[C@H]3C(=O)N[C@H](C(=O)N[C@H](C(=O)O)c4cc(O)cc(O)c4-c4cc3ccc4O)[C@H](O[C@H]3C[C@](C)(N)[C@@H](O)[C@H](C)O3)c3ccc(c(Cl)c3)Oc3cc2cc(c3O[C@@H]2O[C@H](CO)[C@@H](O)[C@H](O)[C@H]2O[C@H]2C[C@](C)(NCc3ccc(-c4ccc(Cl)cc4)cc3)[C@@H](O)[C@H](C)O2)Oc2ccc(cc2Cl)[C@H]1O)N(C)C(=O)CCCC(=O)NC(P(=O)(O)O)P(=O)(O)O.N.N.N [Compound 10]	>32	>32	>32	>32
CN[C@H](CC(C)C)C(=O)N[C@H]1C(=O)N[C@@H](CC(N)=O)C(=O)N[C@H]2C(=O)N[C@H]3C(=O)N[C@H](C(=O)N[C@H](C(=O)OCC(=O)NC(P(=O)(O)O)P(=O)(O)O)c4cc(O)cc(O)c4-c4cc3ccc4O)[C@H](O[C@H]3C[C@](C)(N)[C@@H](O)[C@H](C)O3)c3ccc(c(Cl)c3)Oc3cc2cc(c3O[C@@H]2O[C@H](CO)[C@@H](O)[C@H](O)[C@H]2O[C@H]2C[C@](C)(NCc3ccc(-c4ccc(Cl)cc4)cc3)[C@@H](O)[C@H](C)O2)Oc2ccc(cc2Cl)[C@H]1O.O=C(O)C(F)(F)F.O=C(O)C(F)(F)F.O=C(O)C(F)(F)F [Compound 31]	16	32	2	2
CN[C@H](CC(C)C)C(=O)N[C@H]1C(=O)N[C@@H](CC(N)=O)C(=O)N[C@H]2C(=O)N[C@H]3C(=O)N[C@H](C(=O)N[C@H](C(=O)OCC(=O)Nc4ccc(CC(P(=O)(O)O)P(=O)(O)O)cc4)c4cc(O)cc(O)c4-c4cc3ccc4O)[C@H](O[C@H]3C[C@](C)(N)[C@@H](O)[C@H](C)O3)c3ccc(c(Cl)c3)Oc3cc2cc(c3O[C@@H]2O[C@H](CO)[C@@H](O)[C@H](O)[C@H]2O[C@H]2C[C@](C)(NCc3ccc(-c4ccc(Cl)cc4)cc3)[C@@H](O)[C@H](C)O2)Oc2ccc(cc2Cl)[C@H]1O.N.N.N [Compound 33]	>32	>32	8	8
CC(C)C[C@H](C(=O)N[C@H]1C(=O)N[C@@H](CC(N)=O)C(=O)N[C@H]2C(=O)N[C@H]3C(=O)N[C@H](C(=O)N[C@H](C(=O)O)c4cc(O)cc(O)c4-c4cc3ccc4O)[C@H](O[C@H]3C[C@](C)(N)[C@@H](O)[C@H](C)O3)c3ccc(c(Cl)c3)Oc3cc2cc(c3O[C@@H]2O[C@H](CO)[C@@H](O)[C@H](O)[C@H]2O[C@H]2C[C@](C)(NCc3ccc(-c4ccc(Cl)cc4)cc3)[C@@H](O)[C@H](C)O2)Oc2ccc(cc2Cl)[C@H]1O)N(C)C(=O)CC(P(=O)(O)O)P(=O)(O)O.N.N.N [Compound 44]	32	32	4	4
